Key:
[1] = tested on: murine bone marrow-derived mast cells (BMMCs); assay: In vitro release of β-hexosaminidase (degranulation) from IgE-preloaded murine bone marrow-derived mast cells; format: cell-based, mice
Description: (§1) According to the technique established by Razin et al. (Proc. Natl. Acad. Sci. USA 1981, 78:2559-2561), bone marrow cells (1×10^6/ml) from 6 to 8 week old mice (129/Sv×C57BL/6) were cultured (37° C. and 5% CO2) as single cell suspensions in RPMI 1640 medium (Sigma-Aldrich, Munich, Germany) supplemented with 15% fetal calf serum (FCS), 1% X63Ag8-653-conditioned medium (Karasuyama and Melchers, Eur. J. Immunol. 1988, 18:97-104), 2 mM L-glutamine, 10 μM β-mercaptoethanol, 50 units/ml penicillin, and […] streptomycin. At weekly intervals, the non-adherent cells were reseeded at 5×10^5 cells/ml in fresh medium. After 4-6 weeks in culture, greater than 99% of the cells were KIT- and […] as assessed by fluorescence-activated cell sorting (FACS) using phycoerythrin-labeled anti-KIT antibodies (Pharmingen, Mississauga, Canada) and fluorescein isothiocyanate (FITC)-labelled hamster anti-mouse FcεRIα antibodies (eBioscience, Frankfurt, Germany), respectively. The resulting cells are called bone marrow-derived mast cells (BMMCs).
(§2) For degranulation studies, BMMCs were preloaded with 0.15 μg/ml IgE anti-DNP (dinitrophenyl; Sigma Aldrich, Munich, Germany) overnight at 37° C. The cells were then washed and resuspended in Tyrode's buffer (130 mM NaCl, 5 mM KCl, 1.4 mM CaCl2, 1 mM MgCl2, 5.6 mM glucose, and 0.1% bovine serum albumin (BSA) in 10 mM Hepes, pH 7.4).
Subsequently, the cells were left unstimulated (unst) or stimulated with 20 ng/ml antigen (Ag: dinitrophenyl-human serum albumin ([DNP-HSA]; dissolved in medium); Sigma Aldrich, Munich, Germany) for 30 min. The degree of degranulation was determined by measuring the release of β-hexosaminidase (Nishizumi et al., J Immunol 1997; 158:2350-2355). Experiments were performed in triplicates.

[2] = tested on: murine bone marrow-derived mast cells (BMMCs); assay: In vitro release of Interleukin-6 (IL-6) from IgE-preloaded murine bone marrow-derived mast cells (ELISA); format: cell-based, mice; details: Mus musculus, BMMC, 3 h; read-out: percentage of inhibition of IL-6 release
Description: as §1, §2
Subsequently, the cells were left unstimulated (unst) or stimulated with 20 ng/ml Ag (dissolved in medium) for 3 h. Subsequently, the cells were pelleted by centrifugation and the resulting cell pellet was discarded. For the determination of the amount of degranulated IL-6, the respective supernatant obtained by centrifugation was subjected to an IL-6 ELISA according to the manufacturer's instructions (BD, Heidelberg, Germany). Experiments were performed in triplicate.

[3] = tested on: patient with therapy-resistant systemic mastocytosis; assay: Human in-vivo off-label clinical test, symptom intensity by visual analog score (VAS)
Description: The results of the clinical test were closely monitored, captured and documented together with patient. The patient is and diagnosed with systemic mastocytosis (WHO criteria, KIT816V positiv) with official diagnosis. […] The current daily treatment of the patient is: H1 antihistamine 3× daily, cromolyn 4×200 mg daily, PPI 110 mg daily, Vitamine C/Vitamine D upon need, Actonel, upon need decortin 40 to 60 mg.

[4] = Mus musculus, BMMC, read-out: percentage of inhibition of β-hexosaminidase release

Compound: CCNC1=Nc2ccc(Cl)cc2C(C)(c2ccccc2)O1 (racemic) [Etifoxine, 6-Chloro-2-N-ethyl-4-methyl-4-phenyl-4H-3,1-benzoxazine-2-amine]
- inhibition at 10 µM [1, 4]: 30%
- inhibition at 30 µM [1, 4]: 68%
- activity (degranulation) of unstimulated IgE-loaded BMMCs ([1]; unstimulated (absence of Ag), independently of the concentration studied): not significantly affected
- inhibition at 3 µM [2]: 20%
- inhibition at 10 µM [2]: 48%
- inhibition at 30 µM [2]: 92%
- total clinical symptom intensity score (VAS) ([3]; after 6 weeks treatment, VAS baseline value 8, scale 0-10): 4
- side effects ([3]; during the 6 week oral treatment, one patient): No side effects occurred
- reduction of total clinical symptom intensity score ([3]; one patient, oral 50 to 150 mg daily, over 6 weeks): 50%

Reference: US20220265667A1 (priority 2019, published 2022)
